System: mouse monoclonal antibodies (mAb) B8 against Btri
Assay: ELISA: binding of anti-Btri mAb to Streptavidin-coated plates modified with biotinylated Btri glycoconjugates
Conditions: for fluorescence intensity I (binding capacity / maximal activity): corrected fluorescence 355nm/460nm, at loading of maximal binding
Description: Biot1-PNPA was used to prepare a polyacrylamide conjugate with blood group trisaccharide B (Btri), Galα1-3(Fucα1-2)Gal-(FIG. 1b, Glyc=Btri). The obtained end-labeled glycopolymer; biott-PHEAA-(Btri)x (molar fraction of Btri is 20%), was tested on ability to bind monoclonal antibodies (mAbs) against Btri in ELISA. Its antibody binding activity was compared to that of other biotinylated derivatives of Btri, two monomeric glycosides with Btri-biot linkers of different length and a glycopolymer, PHEAA-(Btri)x-bioty. The latter was synthesized by the routine approach (see FIG. 1a) and contained biotin residues randomly pendant to the polymer backbone as side groups.
Dependence of signal in ELISA from loading of Streptaviditn-coated plates with biotynylated glycoconjugates is shown in FIG. 8. As shown, binding of antibodies with Streptavidin-coated plates modified with biotinilated glycoconjugates. The Streptavidin-coated plates were consequentially incubated with the glycoconjugates and mouse mAb; for development of the bound mAbs an anti-mouse alkaline phosphatase conjugate in combination with a fluorescent substrate were used. The detected fluorescence intensity is plotted against added per well amounts of a) Btri and b) biotin related to the quantity of Streptavidin in well. According the manufacturer 125 pmole Streptavidin is contained per well, the working well surface was calculated to be 9·10^15 Å^2. […] The antibody binding to surface modified with the biotinylated monovalent Btri-glycosides was noticeably lower then in the cases with the multivalent ligands. For the glycoside with a long linker, Btri-O(CH2)3NHCO(CH2)5NH-biot, assay signal was detected only when coating concentration of the glycoside exceeded 20 ng/well (0.18 mole biotin/mole Streptavidin, and 22 pmole of Btri/well).
All chemicals and solvents apart from those mentioned below were purchased from Merck (Germany) and Fluka (Switzerland). The solvents were dried and purified by conventional procedures. Galα1-3(Fucα1-2)Galβ-O(CH2)3NH2, 4-Nitrophenylacrylate, PNPA and PHEAA-(Btri)x-biotiny were synthesized as described elsewhere. Mouse monoclonal antibodies (mAb) B8 against Btri were obtained from All-Russian Hematology Research Center, Moscow. Anti-mouse IgG+IgM (H+L)-alkaline phosphatase conjugate (Ig-AP) was the product of AP Biotech (UK). The organocobalt complexes used in this work were protected from light; their solutions were concentrated under vacuum with bath temperature kept below 35° C.
Enzyme-Linked Immunosorbent Assay.
Before test plates “Reacti-Bind Streptavidin Coated High Binding Capacity Black 96-Well Plate” (Pierce) were rinsed twice with PBS. Then serial tenfold dilutions of the biotinylated glycoconjugates contained Btri in PBS (0.02-200 μg ml^−1, […] per well) were added onto the plates for 1 h at 37° C. Plates were washed with PBS containing 0.1% Tween-20 (washing buffer). The same way plates were washed between all the next steps. After washing the plates were blocked with 3-% BSA in PBS. B8 mAbs (1:100 in PBS containing 0.3% BSA) were added and plates were incubated for 1 h at 37° C. After that plates were washed and incubated with Ig-AP (1:5000 in PBS containing 0.3% BSA) for 1 h at 37° C. […] After 30-min incubation at room temperature fluorescence intensity (355nm/460nm) was measured by “Victor^2” multilabel counter (PerkinElmer). The collected data were expressed in fluorescence units. Each assay was done in duplicate, blank reaction was performed by omitting mAb. The blank reading was subtracted from the final fluorescence to provide the corrected fluorescence intensity values.

| Substance | interaction with mAb (in words) (ELISA on Streptavidin-coated plates) | fluorescence intensity I (binding capacity / maximal activity) | coating concentration above which assay signal was detected (0.18 mole biotin/mole Streptavidin, 22 pmole of Btri/well) | loading at which maximal binding of mAb / maximal activity was achieved (Streptavidin-coated plate, 125 pmole Streptavidin per well, 200 ng/well = 186 pmol of Btri, 220 ng/well = 220 pmole of Btri/well) [ng/well] | surface density of Btri at which binding with mAb reached maximal level (working well surface calculated to be 9·10^15 Å^2) |
| --- | --- | --- | --- | --- | --- |
| Btri-O(CH2)3NH-biot | exceptionally weak | ~5×10^4 f.u. | – | – | – |
| Btri-O(CH2)3NHCO(CH2)5NH-biot | – | ~70×10^4 f.u. | exceeded 20 ng/well | 220 | about 15 residues/1000 Å^2 |

Source: patent publication US20080076137A1, “Bioanalytic Systems and Methods” (priority 2006, published 2008)
